This is an account of results in patent publication US20250282795A1, “EGFR Inhibitors in cancer treatment” (Celyn Therapeutics, Inc., priority 2022, published 2025).

Format in all cases: cell-based
Data set [1] concerns Ba/F3 (EGFRwt). Description: Cellular growth inhibition assay (CellTiter-Glo), Ba/F3 (EGFRwt). The settings on record: Mus musculus, BaF3, 72 h; Ba/F3 (Wild type) with 10 ng/ml rhEGF, 3 days of incubation. As for the experimental part:
(§1) Example E. Cellular Growth Inhibition Assay
(§2) Ba/F3(Empty vector) (Signosis), Ba/F3(Wild type) (Signosis), Ba/F3(L^858R+T790M) (Signosis), Ba/F3(A767_dupASV) (Signosis), Ba/F3(D770_N771insSVD) (Signosis), Ba/F3(H773_V774insNPH) (Signosis) were seeded at a density of 4000 cells per well in a CellBIND® 384-well Flat Clear Bottom Black Polystyrene Microplates (Coming, USA, Cat #3770) in 45 μl total volume of RPMI (PanEco, Cat #C330, Russia) with […] (HyClone, Cat #SV30160.03) and with 10 ng/ml rmIL-3 (RD systems, USA, Cat #403-ML-025) (for BaBF3(Empty vector)) and with 10 ng/ml rhEGF (ThermoFisher, USA, Cat #PHG0311L) (for BaCF3(Wild type)). 500× compounds solutions in DMSO (Sigma Cat #D2650) were prepared into Cmpnds plate (DiamondWell Plate, Axigen, Cat #P-384-120SQ-C—S) and DMSO only control was included. 1.l of 500× compounds (Cmpnds plate) was added to 49 µl of culture medium into Dilution plate (Diamond Well Plate, Axigen, Cat #P-384-120SQ-C—S), mixed and then 5 μl of 10× compounds solutions were transferred to cells followed by centrifugation at 100 g for 1 min. Final DMSO concentration was 0.2% o. After 3 days of incubation 10.l of CellTiter-Glo (Promega, CAT #G7572) were added to the cells, plate was centrifuged at 100 g for 1 min and luminescence signal was measured using Microplate Reader (CLARIOStar).
On the technique in general: Cellular ATP, detected with luciferase, serves as a proxy for viable cell number.

The subject of data set [2] is Ba/F3 (L858R + T790M). Description: Cellular growth inhibition assay (CellTiter-Glo), Ba/F3 (L858R+T790M). The conditions noted are these: Mus musculus, BaF3, 72 h; 3 days of incubation. As for the experimental part: as §1, §2
The test system of data set [3] is Ba/F3 (A767_dupASV). Description: Cellular growth inhibition assay (CellTiter-Glo), Ba/F3 (A767_dupASV). The settings on record: Mus musculus, BaF3, 72 h; 3 days of incubation; read-out: Ba/F3 (A767_dup ASV) CC50. As for the experimental part:
as §1, §2

The subject of data set [4] is Ba/F3 (D770_N771insSVD). Description: Cellular growth inhibition assay (CellTiter-Glo), Ba/F3 (D770_N771insSVD). The settings on record: Mus musculus, BaF3, 72 h; 3 days of incubation; read-out: Ba/F3 (D770_N771 insSVD) CC50. As for the experimental part:
as §1, §2

Data set [5] deals with Ba/F3 (H773_V774insSVD). Description: Cellular growth inhibition assay (CellTiter-Glo), Ba/F3 (H773_V774insSVD). The settings on record: Mus musculus, BaF3, 72 h; 3 days of incubation; read-out: Ba/F3 (H773_V774 insSVD) CC50.
Data set [6] in a line: Cellular growth inhibition assay (CellTiter-Glo), Ba/F3 (Empty vector). The conditions noted are these: mouse, Ba/F3 cells with empty vector; Ba/F3 (Empty vector) with 10 ng/ml rmIL-3, 3 days of incubation. As for the experimental part:
as §1, §2

For the compound `COc1c(F)cccc1Nc1c2[nH]c3c1C(=O)NCC3C/C=C/COc1cccc(c1)COc1cnccc1-2` (centres unmarked) [Compound 29, (19E)-28-[(3-Fluoro-2-methoxyphenyl)amino]-3,22-dioxa-6,11,15-triazapentacyclo[21.3.1^10,13.0^4,9.0^12,17]octacosa-1(27),4,6,8,10(28),12,19,23,25-nonaen-14-one], the CC50 in data set [1] was 100 to 1000 nM; in data set [2], 1000 to 10000 nM; in data set [3], 100 to 1000 nM; in data set [4] it was 100 to 1000 nM; in data set [5], 1000 to 10000 nM. For the same compound, the CC50 at 3 days in data set [6] was over 10000 nM.

As to `COc1c(F)cccc1Nc1c2[nH]c3c1C(=O)NCC3C/C=C\CCCC(=O)N1CCCC(COc3cnccc3-2)C1` (centres unmarked) [Compound 117, 25-[(3-Fluoro-2-methoxyphenyl)amino]-7,8,9,10,14,15,18,18a,19,20-decahydro-6H-7,11-methano-22,24-methenodipyrido[3,4-b:4′,3′-f][1,5,15]oxadiazacycloicosine-12,21(13H,23H)-dione], the CC50 in data set [1] lay within 100 to 1000 nM; in data set [2] it was 1000 to 10000 nM; in data set [3] it was 10 to 100 nM; in data set [4] it was 100 to 1000 nM; in data set [5] it was 1000 to 10000 nM. The compound also returned a CC50 at 3 days in data set [6] of over 10000 nM.

Consider `COc1c(F)cccc1Nc1c2[nH]c3c1C(=O)NCC3C/C=C/CCCC(=O)N1CCCC(COc3cnccc3-2)C1` (centres unmarked) [Compound 118, 25-[(3-Fluoro-2-methoxyphenyl)amino]-7,8,9,10,14,15,18,18a,19,20-decahydro-6H-7,11-methano-22,24-methenodipyrido[3,4-b:4′,3′-f][1,5,15]oxadiazacycloicosine-12,21(13H,23H)-dione], for which the CC50 in data set [1] is 1000 to 10000 nM; in data set [2], 1000 to 10000 nM; in data set [3], 100 to 1000 nM; in data set [4], 1000 to 10000 nM; in data set [5], 1000 to 10000 nM. The CC50 at 3 days in data set [6] fell in the range of 1000 to 10000 nM.

As for `COc1c(F)cccc1Nc1c2[nH]c3c1C(=O)NCC3CCCCCCC(=O)N1CCCC(COc3cnccc3-2)C1` (centres unmarked) [Compound 119, 25-[(3-Fluoro-2-methoxyphenyl)amino]-7,8,9,10,14,15,16,17,18,18a,19,20-dodecahydro-6H-7,11-methano-22,24-methenodipyrido[3,4-b:4′,3′-f][1,5,15]oxadiazacycloicosine-12,21(13H,23H)-dione], the CC50 in data set [1] is 1000 to 10000 nM; in data set [2], over 10000 nM; in data set [3] it was 100 to 1000 nM; in data set [4] it was 1000 to 10000 nM; in data set [5], over 10000 nM. Also, the CC50 at 3 days in data set [6] is over 10000 nM.

Regarding `COc1c(F)cccc1Nc1c2[nH]c3c1C(=O)NCC3CCCCN(C)CCOc1cnccc1-2` (centres unmarked) [Compound 127, 19-[(3-Fluoro-2-methoxyphenyl)amino]-8-methyl-6,7,8,9,10,11,12,12a,13,14-decahydro-16,18-methenodipyrido[3,4-i:4′,3′-m][1,4,11]oxadiazacyclotetradecin-15(17H)-one], the CC50 in data set [1] is 1000 to 10000 nM; in data set [2], over 10000 nM; in data set [3], 1000 to 10000 nM; in data set [4] it was over 10000 nM; in data set [5], over 10000 nM. Moreover, in data set [6], the CC50 at 3 days was over 10000 nM.

For `COc1c(F)cccc1Nc1c2[nH]c3c1C(=O)NC[C@H]3CCCN1CCO[C@H](COc3cnccc3-2)C1` [Compound 158, (7S)-21-[(3-Fluoro-2-methoxyphenyl)amino]-6,7,9,10,12,13,14,14a,15,16-decahydro-7,11-methano-18,20-methenodipyrido[3,4-k:4′,3′-o][1,4,7,13]dioxadiazacyclohexadecin-17(19H)-one], the CC50 was over 10000 nM in data set [2], 100 to 1000 nM in data set [3], 1000 to 10000 nM in data set [4] and 1000 to 10000 nM in data set [5]. In addition, the CC50 at 3 days in data set [6] was in the range of 1000 to 10000 nM.

Consider `COc1c(F)cccc1Nc1c2[nH]c3c1C(=O)NCC3CCCCN(C(C)C)CCOc1cnccc1-2` (centres unmarked) [Compound 159, 19-(3-fluoro-2-methoxyanilino)-8-(propan-2-yl)-6,7,8,9,10,11,12,12a,13,14-decahydro-16,18-(metheno)dipyrido[3,4-i: 4′,3′-m][1,4,11]oxadiazacyclotetradecin-15(17H)-one], for which the CC50 in data set [2] was over 10000 nM; in data set [3], 100 to 1000 nM; in data set [4], 1000 to 10000 nM; in data set [5] it was 1000 to 10000 nM. In data set [6], the CC50 at 3 days was over 10000 nM.

As for `COc1c(F)cccc1Nc1c2[nH]c3c1C(=O)NCC3CCCN1CC(COc3cnccc3-2)C1` (centres unmarked) [Compound 160, 19-[(3-Fluoro-2-methoxyphenyl)amino]-7,8,10,11,12,12a,13,14-octahydro-6H-7,9-methano-16,18-methenodipyrido[3,4-b:4′,3′-f][1,5,11]oxadiazacyclotetradecin-15(17H)-one], the CC50 in data set [2] is over 10000 nM; in data set [3], 100 to 1000 nM; in data set [4] it was 1000 to 10000 nM; in data set [5], 1000 to 10000 nM. Moreover, the CC50 at 3 days in data set [6] was over 10000 nM.

For `COc1c(F)cccc1Nc1c2[nH]c3c1C(=O)NCC3CCCN1CCC(COc3cnccc3-2)C1` (centres unmarked) [Compound 161, 20-(3-fluoro-2-methoxyanilino)-6,7,8,9,11,12,13,13a,14,15-decahydro-7,10-methano-17,19-(metheno)dipyrido[3,4-b: 4′,3′-f][1,5,11]oxadiazacyclopentadecin-16(18H)-one], the CC50 lay in the range of 1000 to 10000 nM in data set [2], 10 to 100 nM in data set [3], 100 to 1000 nM in data set [4] and 1000 to 10000 nM in data set [5]. The same compound gave a CC50 at 3 days in data set [6] of over 10000 nM.

In the case of `COc1c(F)cccc1Nc1c2[nH]c3c1C(=O)NCC3CCCCCCNCCOc1cnccc1-2` (centres unmarked) [Compound 164, 21-(3-fluoro-2-methoxyanilino)-6,7,8,9,10,11,12,13,14,14a,15,16-dodecahydro-18,20-(metheno)dipyrido[3,4-k: 4′,3′-o][1,4,13]oxadiazacyclohexadecin-17(19H)-one], the CC50 in data set [2] lay in the range of 1000 to 10000 nM; in data set [3], 10 to 100 nM; in data set [4], 10 to 100 nM; in data set [5], 100 to 1000 nM. Besides, the CC50 at 3 days in data set [6] was over 10000 nM.

As for `COc1c(F)cccc1Nc1c2[nH]c3c1C(=O)NCC3CCCN1CCCC(C1)Oc1cnccc1-2` (centres unmarked) [Compound 166, 20-(3-fluoro-2-methoxyanilino)-6,7,8,9,11,12,13,13a,14,15-decahydro-6,10-methano-17,19-(metheno)dipyrido[3,4-b: 4′,3′-f][1,5,11]oxadiazacyclopentadecin-16(18H)-one], the CC50 fell in the range of 1000 to 10000 nM in data set [2], 1 to 10 nM in data set [3], 10 to 100 nM in data set [4] and 100 to 1000 nM in data set [5]. The same compound displayed a CC50 at 3 days in data set [6] of over 10000 nM.

In the case of `COc1c(F)cccc1Nc1c2[nH]c3c1C(=O)NC[C@@H]3CCCN1CCC[C@@H]1COc1cnccc1-2` [Compound 167, (12aR)-20-[(3-fluoro-2-methoxyphenyl)amino]-1,2,12a,13,14,15,17,18,19,19a-decahydro-12H-4,6-methenodipyrido[3,4-h:4′,3′-l]pyrrolo[2,1-c][1,4,10]oxadiazacyclotridecin-3(5H)-one], the CC50 in data set [2] was 1000 to 10000 nM; in data set [3], 10 to 100 nM; in data set [4], 100 to 1000 nM; in data set [5], 100 to 1000 nM. Besides, the CC50 at 3 days in data set [6] was over 10000 nM.
